Data published in publication PMC10301845, “Characterization of a Novel M4 PAM PET Radioligand [11C]PF06885190 in Nonhuman Primates (NHP)” (Molecules, 2023).
Like-named read-outs stand apart in the source and are kept apart here.

Experiments:
[1] = Protein binding in plasma (ultrafiltration); type: in vitro ADME, monkey; settings: male, cynomolgus, monkey, plasma, read-out: free fraction in plasma
Description: (§1) The free fraction (fp) in blood plasma was measured using an ultrafiltration method with the blood sample collected before the injection of [^11C]PF06885190. Plasma (0.4 mL) was mixed with [^11C]PF06885190 formulation (0.04 mL, ~1 MBq) and incubated at room temperature (RT) for 10 min. To estimate the non-specific binding percent, the same process was performed on phosphate buffered saline (PBS) (0.4 mL) as a control solution. After the incubation, 0.2 mL of the plasma and PBS incubated mixtures were pipetted into ultrafiltration tubes (Centrifree YM-30, molecular weight cutoff, 30,000 Da; Millipore: Billerica, MA, USA) and centrifuged at 3800 rpm for 15 min. Equal aliquots (0.02 mL) of the ultrafiltrate (Cfree) and the plasma (Ctotal) were counted for their radioactivity with a NaI well-counter. Each determination was performed in triplicate. The free fraction was then calculated as fp = Cfree/Ctotal, and the results were corrected for the membrane binding measured with the control samples.

[2] = system: monkey plasma proteins; test: Protein binding in plasma (ultrafiltration); type: in vitro ADME
Description: as §1

[3] = Stability of the radioligand in the formulation (analytical HPLC); type: physicochemical; settings: sterile PBS formulation; up to 60 min / 1 h after end of synthesis
Description: The radiochemical purity and stability of [^11C]PF06885190 was determined by an analytical HPLC system coupled with an analytical XBridge column (C18 5 µm, 4.6 × 150 mm particle size), a Merck Hitachi L-7100 Pump, a L-7400 UV detector and a GM-tube for radioactivity detection (VWR International). A mixture of acetonitrile (30%) and HCO2NH4 (0.1 M aq. solution) (70%) with a flow rate of 2 mL/min was used as the HPLC isocratic mobile phase. The HPLC elution profile was monitored with an UV absorbance detector (ƛ = 254 nm) coupled to a radioactive detector (BETA-flow, Beckman, Fullerton, CA). [^11C]PF-06885190 was eluted with a retention time of (tR) 4.0–4.5 min (Figure S3, Supplementary Material) and the run time of the HPLC program was 8 min. The identity of the radiolabeled compounds was confirmed by HPLC with the co-injection of the corresponding authentic reference standard. The MA was calculated by analytical HPLC following the method described previously reported.

[4] = after pretreatment with donepezil

fraction unbound at 10 min [1, 4]: 0.121
fraction unbound at 10 min ([1]; baseline): 0.248
Binding to monkey plasma proteins [2, 4]: 87.9 ± 0.3%
Binding to monkey plasma proteins ([2]; baseline): 75.2 ± 4.2%
stability in formulation, radiochemical purity [3]: exceeding 99%
Compound: Cc1nc(N[11CH3])c2c(c1C)CN(C(=O)C[C@H]1C[C@@H]1c1ccc(F)nc1)C2 [[^11C]PF06885190]
